According to US8410153B2, “Naphthalene isoxazoline invertebrate pest control agents” (E.I. du Pont de Nemours and Company, priority 2007, dated 2013):

Assays:
Type in all cases: in vivo
[1] = test system: diamondback moth (Plutella xylostella); test: Test A: control of diamondback moth on radish plant, foliar spray; conditions: sprayed at 50 ppm, held 6 days
Excerpt: For evaluating control of diamondback moth (Plutella xylostella) the test unit consisted of a small open container with a 12-14-day-old radish plant inside. This was pre-infested with about 50 neonate larvae that were dispensed into the test unit via corncob grits using a bazooka inoculator. The larvae moved onto the test plant after being dispensed into the test unit.
(§1) Test compounds were formulated using a solution containing 10% acetone, 90% water and 300 ppm X-77™ Spreader Lo-Foam Formula non-ionic surfactant containing alkylarylpolyoxyethylene, free fatty acids, glycols and isopropanol (Loveland Industries, Inc. Greeley, Colo., USA). The formulated compounds were applied in 1 mL of liquid through a SUJ2 atomizer nozzle with ⅛ JJ custom body (Spraying Systems Co. Wheaton, Ill., USA) positioned 1.27 cm (0.5 inches) above the top of each test unit. All experimental compounds in these tests were sprayed at 50 ppm, and the test was replicated three times. After spraying of the formulated test compound, each test unit was allowed to dry for 1 h and then a black, screened cap was placed on top. The test units were held for 6 days in a growth chamber at 25° C. and 70% relative humidity. Plant feeding damage was then visually assessed based on foliage consumed, and a pest mortality rating was also counted and calculated for each test unit.

[2] = test system: fall armyworm (Spodoptera frugiperda); test: Test B: control of fall armyworm on corn (maize) plant, foliar spray; conditions: sprayed at 50 ppm
Description: as §1
For evaluating control of fall armyworm (Spodoptera frugiperda) the test unit consisted of a small open container with a 4-5-day-old corn (maize) plant inside. This was pre-infested (using a core sampler) with 10-15 1-day-old larvae on a piece of insect diet. Test compounds were formulated and sprayed at 50 ppm as described for Test A and replicated three times. After spraying, the test units were maintained in a growth chamber and then the control efficacy was rated for each test unit as described for Test A.

[3] = test system: western flower thrips (Frankliniella occidentalis); test: Test E: control of western flower thrips on Soleil bean plant, contact and/or systemic; conditions: held 6 days
Description: as §1
For evaluating control of the western flower thrips (Frankliniella occidentalis) through contact and/or systemic means, the test unit consisted of a small open container with a 5-7-day-old Soleil Bean plant inside. Test compounds were formulated and sprayed as described for Test A. All experimental compounds in these tests were sprayed at 250 or 50 ppm as noted, and the test was replicated three times. After spraying, the test units were allowed to dry for 1 h, 22-27 adult thrips were added to each unit and then a black, screened cap was placed on top. The test units were held for 6 days at 25° C. and 45-55% relative humidity. A mortality rating was assessed along with a plant damage rating for each test unit.

Measured: levels of control efficacy (20% or less feeding damage or 80% or more mortality)

CNC(=O)C(C)NC(=O)c1ccc(C2=NOC(c3cc(Br)cc(C(F)(F)F)c3)(C(F)(F)F)C2)c2ccccc12 (mixture of isomers) [Compound 141]
very good to excellent: [1] | [2] | [3]; sprayed at 50 ppm

O=C(CNC(=O)c1ccc(C2=NOC(c3cc(Br)cc(C(F)(F)F)c3)(C(F)(F)F)C2)c2ccccc12)NCC(F)(F)F (racemic) [Compound 52]
very good to excellent: [1] | [2] | [3]; sprayed at 50 ppm | [3]; sprayed at 250 ppm

CS(=O)(=O)CCNC(=O)c1ccc(C2=NOC(c3cc(C(F)(F)F)cc(C(F)(F)F)c3)(C(F)(F)F)C2)c2ccccc12 (racemic) [Compound 49]
very good to excellent: [1] | [2] | [3]; sprayed at 50 ppm | [3]; sprayed at 250 ppm

CC(C)NC(=O)CNC(=O)c1ccc(C2=NOC(c3cccc(C(F)(F)F)c3)(C(F)(F)F)C2)c2ccccc12 (racemic) [Compound 38]
very good to excellent: [1] | [2] | [3]; sprayed at 50 ppm | [3]; sprayed at 250 ppm

O=C(CNC(=O)c1ccc(C2=NOC(c3cc(Cl)cc(Cl)c3)(C(F)(F)F)C2)c2ccccc12)NCC(F)(F)F (stereo not drawn) [Compound 1]
very good to excellent: [1] | [2] | [3]; sprayed at 50 ppm | [3]; sprayed at 250 ppm

CC(NC(=O)c1ccc(C2=NOC(c3cc(C(F)(F)F)cc(C(F)(F)F)c3)(C(F)(F)F)C2)c2ccccc12)C(=O)NCC(C)(C)C (mixture of isomers) [Compound 124]
very good to excellent: [1] | [2] | [3]; sprayed at 250 ppm

CC(C)(O)CNC(=O)c1ccc(C2=NOC(c3cccc(C(F)(F)F)c3)(C(F)(F)F)C2)c2ccccc12 (racemic) [Compound 43]
very good to excellent: [1] | [2] | [3]; sprayed at 250 ppm

CCSCCNC(=O)c1ccc(C2=NOC(c3cc(C(F)(F)F)cc(C(F)(F)F)c3)(C(F)(F)F)C2)c2ccccc12 (stereo not drawn) [Compound 92]
very good to excellent: [1] | [2] | [3]; sprayed at 50 ppm | [3]; sprayed at 250 ppm

CSCCNC(=O)c1ccc(C2=NOC(c3cc(C(F)(F)F)cc(C(F)(F)F)c3)(C(F)(F)F)C2)c2ccccc12 (racemic) [Compound 58]
very good to excellent: [1] | [2] | [3]; sprayed at 50 ppm | [3]; sprayed at 250 ppm

CC(C)(C)CNC(=O)CNC(=O)c1ccc(C2=NOC(c3cc(C(F)(F)F)cc(C(F)(F)F)c3)(C(F)(F)F)C2)c2ccccc12 (stereo not drawn) [Compound 103]
very good to excellent: [1] | [2] | [3]; sprayed at 50 ppm

CC(NC(=O)CNC(=O)c1ccc(C2=NOC(c3cc(Cl)cc(Cl)c3)(C(F)(F)F)C2)c2ccccc12)C(F)(F)F (mixture of isomers) [Compound 122]
very good to excellent: [1] | [2] | [3]; sprayed at 50 ppm | [3]; sprayed at 250 ppm

CS(=O)(=O)CCNC(=O)c1ccc(C2=NOC(c3cccc(C(F)(F)F)c3)(C(F)(F)F)C2)c2ccccc12 (racemic) [Compound 39]
very good to excellent: [1] | [2] | [3]; sprayed at 50 ppm | [3]; sprayed at 250 ppm

CC(NC(=O)c1ccc(C2=NOC(c3cc(Cl)cc(Cl)c3)(C(F)(F)F)C2)c2ccccc12)C(=O)NC(C)C(F)(F)F (mixture of isomers) [Compound 123]
very good to excellent: [1] | [2] | [3]; sprayed at 50 ppm | [3]; sprayed at 250 ppm

CSCCNC(=O)c1ccc(C2=NOC(c3cccc(C(F)(F)F)c3)(C(F)(F)F)C2)c2ccccc12 (racemic) [Compound 34]
very good to excellent: [1] | [2] | [3]; sprayed at 50 ppm | [3]; sprayed at 250 ppm

CC(C)CNC(=O)CNC(=O)c1ccc(C2=NOC(c3cc(Cl)cc(Cl)c3)(C(F)(F)F)C2)c2ccccc12 (stereo not drawn) [Compound 6]
very good to excellent: [1] | [2] | [3]; sprayed at 50 ppm | [3]; sprayed at 250 ppm

CS(=O)(=O)CCNC(=O)c1ccc(C2=NOC(c3cc(Cl)cc(C(F)(F)F)c3)(C(F)(F)F)C2)c2ccccc12 (stereo not drawn) [Compound 66]
very good to excellent: [1] | [2] | [3]; sprayed at 50 ppm | [3]; sprayed at 250 ppm

CC(C)CNC(=O)C(C)NC(=O)c1ccc(C2=NOC(c3cc(C(F)(F)F)cc(C(F)(F)F)c3)(C(F)(F)F)C2)c2ccccc12 (stereo not drawn) [Compound 90]
very good to excellent: [1] | [2] | [3]; sprayed at 50 ppm

CSCCNC(=O)c1ccc(C2=NOC(c3cc(Br)cc(Br)c3)(C(F)(F)F)C2)c2ccccc12 (stereo not drawn) [Compound 21]
very good to excellent: [1] | [2] | [3]; sprayed at 50 ppm | [3]; sprayed at 250 ppm

COCC(C)NC(=O)c1ccc(C2=NOC(c3cccc(C(F)(F)F)c3)(C(F)(F)F)C2)c2ccccc12 (mixture of isomers) [Compound 47]
very good to excellent: [1] | [2] | [3]; sprayed at 50 ppm | [3]; sprayed at 250 ppm

CC(CO)NC(=O)c1ccc(C2=NOC(c3cccc(C(F)(F)F)c3)(C(F)(F)F)C2)c2ccccc12 (mixture of isomers) [Compound 41]
very good to excellent: [1] | [2] | [3]; sprayed at 50 ppm | [3]; sprayed at 250 ppm
